The subject of data set [1] is somatostatin receptors, rat cerebral cortex membranes. As to the kind of experiment: competitive displacement of 125I-tyr-11-somatostatin-14, rat cerebral cortex plasma membranes (positive control). Format: binding, rat (Wistar). An excerpt: Br. J. Cancer (1992), 66, 391 395 ? Macmillan Press Ltd., 1992~~~~~~~~~~~~~~~~~~~~~~~~~~~~~~~~~~~~~~~~~~~~~~~~~~~~~~~~~~~~~~ Somatostatin binding in normal and malignant human gastrointestinal mucosa G.V. Miller, S.M. Farmery, L.F. Woodhouse & J.N. Primrose University Department of Surgery, St. James's University Hospital, Beckett Street, Leeds LS9 7TF, UK. Summary Somatostatin is a regulatory peptide implicated in the control of cellular proliferation in epithelial tissues and this regulation may occur directly via membrane bound receptor activation. The aim of this study was to investigate somatostatin binding in human gastrointestinal cancer and normal mucosa. Plasma membranes were prepared from specimens of tumour and normal mucosa from 51 patients undergoing surgical resection for malignancy (28 gastric, 23 colorectal). Using a competitive displacement assay, specific '251-tyrosine -1 -somatostatin-14 binding to plasma membranes was assessed and characterised in terms of receptor affinity (Kd) and maximum binding capacity (Bmax) as determined by Scatchard analysis. […] Similar affinity and binding capacity was demonstrable in normal mucosal samples. […] The functional significance of these low affinity binding sites requires elucidation to determine whether long-acting somatostatin analogues may have therapeutic benefit in gastrointestinal malignancy. Hormonal manipulation, by surgical or medical methods, has been used extensively in therapy for carcinoma of the breast, prostate, thyroid and in certain gut endocrine tumours (Horowitz et al., 1975; Higgins et al., 1941; Crile, 1957; Osei et al., 1985). There is, however, no currently defined role for endocrine therapy in non-endocrine gastrointestinal cancer. […] Any benefit from systemic therapy is usually abrogated by systemic toxicity (Rake et al., 1979; Engstrom et al., 1985; Bleiberg, 1990). For this reason a non-toxic, effective, treat- ment modality would be of value to improve the outlook for those patients with advanced disease. There is increasing evidence that tumours arising from the gastrointestinal tract are, at least in part, hormone depen- dent. Numerous hormones have now been implicated in the pathogenesis and development of gastrointestinal malig- nancy, including gastrin, epidermal growth factor, entero- pancreatic hormones and oestrogenic steroids (Sirinek et al., 1985; Watson et al., 1988; Li et al., 1980; Howatson & Carter, 1985; McMichael et al., 1980). […] Somatostatin and its analogues are good candidates for use as endocrine agents in the treatment of gastrointestinal cancer. […]
In general terms: Loss of bound radioactivity is the signal in a displacement assay; it reports binding, not function.

Data set [2] has as its system somatostatin binding sites, human gastric adenocarcinoma membranes. As to the kind of experiment: competitive displacement of 125I-tyr-11-somatostatin-14, human gastric adenocarcinoma plasma membranes. An excerpt: (§1) Br. J. Cancer (1992), 66, 391 395 ? Macmillan Press Ltd., 1992~~~~~~~~~~~~~~~~~~~~~~~~~~~~~~~~~~~~~~~~~~~~~~~~~~~~~~~~~~~~~~ Somatostatin binding in normal and malignant human gastrointestinal mucosa G.V. Miller, S.M. Farmery, L.F. Woodhouse & J.N. Primrose University Department of Surgery, St. James's University Hospital, Beckett Street, Leeds LS9 7TF, UK. Summary Somatostatin is a regulatory peptide implicated in the control of cellular proliferation in epithelial tissues and this regulation may occur directly via membrane bound receptor activation. The aim of this study was to investigate somatostatin binding in human gastrointestinal cancer and normal mucosa. Plasma membranes were prepared from specimens of tumour and normal mucosa from 51 patients undergoing surgical resection for malignancy (28 gastric, 23 colorectal). Using a competitive displacement assay, specific '251-tyrosine -1 -somatostatin-14 binding to plasma membranes was assessed and characterised in terms of receptor affinity (Kd) and maximum binding capacity (Bmax) as determined by Scatchard analysis. […] Similar affinity and binding capacity was demonstrable in normal mucosal samples. […] The functional significance of these low affinity binding sites requires elucidation to determine whether long-acting somatostatin analogues may have therapeutic benefit in gastrointestinal malignancy. Hormonal manipulation, by surgical or medical methods, has been used extensively in therapy for carcinoma of the breast, prostate, thyroid and in certain gut endocrine tumours (Horowitz et al., 1975; Higgins et al., 1941; Crile, 1957; Osei et al., 1985). There is, however, no currently defined role for endocrine therapy in non-endocrine gastrointestinal cancer. […] Any benefit from systemic therapy is usually abrogated by systemic toxicity (Rake et al., 1979; Engstrom et al., 1985; Bleiberg, 1990). For this reason a non-toxic, effective, treat- ment modality would be of value to improve the outlook for those patients with advanced disease. There is increasing evidence that tumours arising from the gastrointestinal tract are, at least in part, hormone depen- dent. Numerous hormones have now been implicated in the pathogenesis and development of gastrointestinal malig- nancy, including gastrin, epidermal growth factor, entero- pancreatic hormones and oestrogenic steroids (Sirinek et al., 1985; Watson et al., 1988; Li et al., 1980; Howatson & Carter, 1985; McMichael et al., 1980). […] Somatostatin and its analogues are good candidates for use as endocrine agents in the treatment of gastrointestinal cancer. The native peptide is widely distributed in the body and, amongst its many inhibitory actions, has a putative role as an anti-proliferative agent in both normal (Lehy et al., 1979) and malignant (Singh et al., 1986) tissue. The mechanisms involved in this anti-proliferative action have not, as yet, been confirmed. Both the native peptide and its analogues act at the somatotrophs of the anterior pituitary suppressing growth hormone production and release (Adrian et al., 1981). This may influence the proliferation of target tissues directly or may result in a substantial reduction in local growth factor release (Kirkegaard et al., 1984). Further, the production of other trophic hormones such as gastrin Correspondence: J.N. Primrose, University Department of Surgery, Clinical Sciences Building, St James's University Hospital, Beckett St, Leeds LS9 7TF, UK. Received 18 November 1991; and in revised form 9 March 1992. and insulin, either from normal cells or from hormonally active tumour cells, could be suppressed by somatostatin (Morris et al., 1988). The most interesting mechanism, how- ever, involves the interaction of the peptide with specific membrane bound receptors upon proliferating cells. […]

Data set [3] deals with somatostatin binding sites, colorectal adenocarcinoma plasma membranes. As to the kind of experiment: competitive displacement of 125I-tyr-11-somatostatin-14, human colorectal adenocarcinoma plasma membranes. Conditions: for Bmax: Table I, colorectal.
Description: as §1

Data set [4] concerns somatostatin binding sites, gastric body mucosal plasma membranes. As to the kind of experiment: competitive displacement of 125I-tyr-11-somatostatin-14, normal gastric body mucosa plasma membranes. Details: species or system human. Particulars: 21 of 28 preparations, including mucosa of the patient with high affinity tumour, Scatchard/LIGAND, pH 7.4, 1 h, 35 °C, median (quartiles). An excerpt: (§2) Br. J. Cancer (1992), 66, 391 395 ? Macmillan Press Ltd., 1992~~~~~~~~~~~~~~~~~~~~~~~~~~~~~~~~~~~~~~~~~~~~~~~~~~~~~~~~~~~~~~ Somatostatin binding in normal and malignant human gastrointestinal mucosa G.V. Miller, S.M. Farmery, L.F. Woodhouse & J.N. Primrose University Department of Surgery, St. James's University Hospital, Beckett Street, Leeds LS9 7TF, UK. Summary Somatostatin is a regulatory peptide implicated in the control of cellular proliferation in epithelial tissues and this regulation may occur directly via membrane bound receptor activation. The aim of this study was to investigate somatostatin binding in human gastrointestinal cancer and normal mucosa. Plasma membranes were prepared from specimens of tumour and normal mucosa from 51 patients undergoing surgical resection for malignancy (28 gastric, 23 colorectal). Using a competitive displacement assay, specific '251-tyrosine -1 -somatostatin-14 binding to plasma membranes was assessed and characterised in terms of receptor affinity (Kd) and maximum binding capacity (Bmax) as determined by Scatchard analysis. […] Similar affinity and binding capacity was demonstrable in normal mucosal samples. […] The functional significance of these low affinity binding sites requires elucidation to determine whether long-acting somatostatin analogues may have therapeutic benefit in gastrointestinal malignancy. […]

The subject of data set [5] is somatostatin binding sites, normal colonic mucosa plasma membranes. As to the kind of experiment: competitive displacement of 125I-tyr-11-somatostatin-14, normal colonic mucosa plasma membranes. Details: species or system human. Conditions: 15 of 23 preparations; Scatchard/LIGAND; pH 7.4, 1 h, 35 °C; median (quartiles).
Description: as §2

The conditions of data set [6]: native peptide; no reference printed for this sentence; cited from earlier work. An excerpt:
Br. J. Cancer (1992), 66, 391 395 ? Macmillan Press Ltd., 1992~~~~~~~~~~~~~~~~~~~~~~~~~~~~~~~~~~~~~~~~~~~~~~~~~~~~~~~~~~~~~~ Somatostatin binding in normal and malignant human gastrointestinal mucosa G.V. Miller, S.M. Farmery, L.F. Woodhouse & J.N. Primrose University Department of Surgery, St. James's University Hospital, Beckett Street, Leeds LS9 7TF, UK. Summary Somatostatin is a regulatory peptide implicated in the control of cellular proliferation in epithelial tissues and this regulation may occur directly via membrane bound receptor activation. The aim of this study was to investigate s ...

Where two headings read alike, the source gives them in different places. Bridges are numbered along the chain shown (N, C = ends). Where no end group is shown, it is not given here. The star is where a group is joined. 125I = [125I]*

Take “125I-tyrosine-11-somatostatin-14 (AGCKNFFWKTY(125I)TSC; disulfide 3-14; ends not checked; UniProt P61278 103-116, looked up, variant F11Y) [125I-tyr-11-somatostatin-14, radioligand made by Chloramine T iodination of tyr-11-somatostatin-14]”: the “increase in specific bound counts at 35 °C versus 21 °C” value in data set [1] (35 °C versus room temperature (21 °C)) is 20-30%. For the same substance, the “Bmax, low affinity binding” value in data set [2] (22 of 28 tumours, Scatchard/LIGAND, pH 7.4, 1 h, 35 °C, median (quartiles)) is 1.2 (0.7-5.7) pmol mg-1 protein. Further, in data set [2] (22 of 28 tumours, Scatchard/LIGAND, pH 7.4, 1 h, 35 °C, median (quartiles), read-out: affinity (Kd), low affinity binding), the Kd was found to be 170 nM.
For the substance somatostatin-14, the Bmax was 0.21 pmol mg-1 protein in data set [1] (Figure 1 inset, single representative experiment, Scatchard plot by LIGAND); 6.1 pmol mg-1 protein in data set [2] (Figure 2 inset, single representative experiment, Scatchard plot); 1.04 (0.23-6.23) pmol mg-1 protein in data set [2] (Table I, gastric, grade Mod, pH 7.4, 1 h, 35 °C, median (quartiles)); 1.17 (0.67-5.71) pmol mg-1 protein in data set [2] (Table I, gastric, grade Poor, pH 7.4, 1 h, 35 °C, median (quartiles)); 5.11 pmol mg-1 protein in data set [2] (Table I, gastric, grade Well, pH 7.4, 1 h, 35 °C, one sample); 1.04 (0.67 -3.36) pmol mg-1 protein in data set [2] (Table I, gastric, site: Antrum, pH 7.4, 1 h, 35 °C, median (quartiles)). Moreover, the Bmax in data set [2] (Table I, gastric, site: Body, pH 7.4, 1 h, 35 °C, median (quartiles)) was 0.83 (0.25 -7.43) pmol mg-1 protein; in data set [2] (Table I, gastric, site: Cardia, pH 7.4, 1 h, 35 °C, median (quartiles)) it was 1.73 (1.23-5.11) pmol mg-1 protein; in data set [2] (Table I, gastric, stage I (TNM), pH 7.4, 1 h, 35 °C, one sample), 0.28 pmol mg-1 protein; in data set [2] (Table I, gastric, stage II (TNM), pH 7.4, 1 h, 35 °C, median (quartiles)), 0.79 (0.23-1.04) pmol mg-1 protein; in data set [2] (Table I, gastric, stage III (TNM), pH 7.4, 1 h, 35 °C, median (quartiles)), 1.24 (0.77-6.11) pmol mg-1 protein; in data set [2] (Table I, gastric, stage IV (TNM), pH 7.4, 1 h, 35 °C, one sample), 6.3 pmol mg-1 protein. For the same substance, the Bmax in data set [3] (grade Mod, pH 7.4, 1 h, 35 °C, median (quartiles)) is on record as 1.72 (1.30-2.69) pmol mg-1 protein; in data set [3] (grade Poor, pH 7.4, 1 h, 35 °C, median (quartiles)), 1.81 (0.74-2.87) pmol mg-1 protein; in data set [3] (grade Well, pH 7.4, 1 h, 35 °C, median (quartiles)) it was 1.75 (0.49-2.99) pmol mg-1 protein; in data set [3] (site: (R) Colon, pH 7.4, 1 h, 35 °C, median (quartiles)), 2.99 (2.12-3.94) pmol mg-1 protein; in data set [3] (site: Rectum, pH 7.4, 1 h, 35 °C, median (quartiles)) it was 1.67 (1.02-2.78) pmol mg-1 protein; in data set [3] (site: Sigmoid, pH 7.4, 1 h, 35 °C, median (quartiles)), 0.49 (0.11 -1.75) pmol mg-1 protein. Besides, the Bmax in data set [3] (stage A (Dukes), pH 7.4, 1 h, 35 °C, one sample) is 3.40 pmol mg-1 protein; in data set [3] (stage B (Dukes), pH 7.4, 1 h, 35 °C, median (quartiles)), 1.72 (1.30-2.99) pmol mg-1 protein; in data set [3] (stage C (Dukes), pH 7.4, 1 h, 35 °C, median (quartiles)), 1.48 (0.62-2.41) pmol mg-1 protein; in data set [5], 0.7 (0.3-3.5) pmol mg-1 protein. Moreover, the Kd came out at 0.92 nM in data set [1] (Figure 1 inset, single representative experiment, Scatchard plot by LIGAND, read-out: Kd); 0.85 nM in data set [1] (Scatchard/LIGAND, HEPES-KOH pH 7.4, 1 h, 35 °C, median (range), read-out: receptor affinity (Kd)); 165 nM in data set [2] (Figure 2 inset, single representative experiment, Scatchard plot, read-out: Kd); 0.9 nM in data set [2] (one gastric carcinoma (one patient), Scatchard/LIGAND, read-out: Kd, high affinity receptors); 140 nM in data set [3] (abstract, 17 colorectal cancers, Scatchard analysis, read-out: Kd, low affinity binding); 180 nM in data set [4] (read-out: Kd, low affinity high capacity binding). Besides, binding in data set [5] was characterised by a dissociation constant (Kd) of 130 nM. Besides, the “Bmax, low affinity high capacity binding” value in data set [2] (abstract, 22 gastric cancers, Scatchard analysis) is 1.2 pmol mg-1 protein; in data set [3] (17 of 23 preparations, Scatchard/LIGAND, pH 7.4, 1 h, 35 °C, median (quartiles)), 1.8 (1.2-2.9) pmol mg-1 protein; in data set [3] (abstract, 17 colorectal cancers, Scatchard analysis) it was 1.8 pmol mg-1 protein; in data set [4], 3.9 (1.2-6.6) pmol mg-1 protein. Moreover, the “Bmax, high affinity receptors” value in data set [2] (one gastric carcinoma (one patient), Scatchard/LIGAND) is recorded as 0.23 pmol mg-1 protein. Besides, the “half life in the circulation” value in data set [6] was “less than 3 min”.

A word on the Kd: it is a measure of binding affinity in units of concentration.

Values taken from publication PMC1977804, “Somatostatin binding in normal and malignant human gastrointestinal mucosa” (British Journal of Cancer, 1992).
